Test systems include HOP-62 NSCLC; SK-OV-3 ovarian; SW-620 colon; MDA-MB-231 breast; PC-3 prostate; K-562 leukemia; ACHN renal; RXF 393 renal; HL-60(TB) leukemia; UACC-62 melanoma; MALME-3M melanoma.
Common to all, as to test: growth of human tumour cells (NCI), 48 h

Several values for one entry are separate records, joined by “and”; a condition that tells them apart may be missing. Identical values can stand only once.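 Grown in 96-well plates, cells were treated for 48 hours with each compound at five concentrations. Insufficient inhibition: endpoint recorded as highest concentration tested. GI50: concentration for 50% inhibition of growth. TGI: concentration producing complete growth inhibition.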

As for `COP(=O)(O)C(N)Cc1c[nH]c2ccccc12` (configuration not stated), the TGI in the assay with HOP-62 NSCLC, in the assay with SK-OV-3 ovarian, with SW-620 colon, with MDA-MB-231 breast, in the assay with PC-3 prostate and in the assay with K-562 leukemia was above 100 µM throughout. The compound further gave a TGI in the assay with ACHN renal above 100 µM.

Turning to `O=C(CSc1nnc(-c2ccc(N=Cc3ccc(Cl)cc3)cc2)o1)Nc1ccc([N+](=O)[O-])cc1`, the TGI in the assay on HOP-62 NSCLC is above 100 µM; in the assay on SK-OV-3 ovarian, above 100 µM; with RXF 393 renal, 34.6 µM; in the assay on HL-60(TB) leukemia, 63.9 µM; in the assay on SW-620 colon, 36.3 µM; in the assay with UACC-62 melanoma, 42.4 µM. Moreover, the TGI in the assay with K-562 leukemia is 97.1 µM; in the assay with MALME-3M melanoma it was above 100 µM; with ACHN renal it was 25.7 µM.

Take `COc1cccc(-c2nccc3c(OCc4ccccc4)c(OC)c(OC)cc23)c1`: the TGI with HOP-62 NSCLC, in the assay on SK-OV-3 ovarian, with RXF 393 renal, in the assay with HL-60(TB) leukemia, with SW-620 colon and in the assay on UACC-62 melanoma was above 100 µM in each case. Besides, the TGI in the assay on K-562 leukemia, in the assay with MALME-3M melanoma and with ACHN renal was above 100 µM each time.

As to `CCCCn1c2ccccc2c2ccc3c(c21)C(=O)C=CC3=O`, the TGI in the assay with HOP-62 NSCLC, with SK-OV-3 ovarian, with SW-620 colon, in the assay on UACC-62 melanoma, with K-562 leukemia and with MALME-3M melanoma was above 100 µM throughout. This compound returned a TGI with ACHN renal above 100 µM.

As for `Cn1ccnc1CCc1ccc(Cl)c(Cl)c1`, the TGI in the assay with HOP-62 NSCLC, in the assay on SK-OV-3 ovarian, in the assay on RXF 393 renal, with HL-60(TB) leukemia, in the assay with SW-620 colon and with UACC-62 melanoma was above 100 µM in each case. In addition, the TGI with K-562 leukemia, with MALME-3M melanoma and in the assay with ACHN renal was above 100 µM in each case.

For the compound `CN[C@@H](C)[C@@H](O)c1ccccc1`, the TGI with HOP-62 NSCLC was above 100 µM; with HL-60(TB) leukemia, above 100 µM; in the assay with SW-620 colon it was above 100 µM; in the assay with MDA-MB-231 breast, above 10 µM; in the assay on PC-3 prostate it was above 100 µM; with K-562 leukemia, above 100 µM. Also, the TGI with MALME-3M melanoma and in the assay with ACHN renal was above 100 µM in each case.

In the case of `N[C@H](CCC(=O)NCP(=O)(O)O)C(=O)O`, the TGI in the assay with HOP-62 NSCLC, with HL-60(TB) leukemia, with SW-620 colon, in the assay on MDA-MB-231 breast, in the assay with PC-3 prostate and with UACC-62 melanoma was above 100 µM throughout. For the same compound, the TGI with K-562 leukemia, with MALME-3M melanoma and in the assay on ACHN renal was above 100 µM in each case.

Consider `Cc1c(-c2nnc(-c3ccccc3)o2)c(=O)n(-c2ccccc2)n1C`, for which the TGI in the assay with HOP-62 NSCLC, with SK-OV-3 ovarian, in the assay with RXF 393 renal, with HL-60(TB) leukemia, in the assay with SW-620 colon and with UACC-62 melanoma was above 100 µM throughout. For the same compound, the TGI with K-562 leukemia, in the assay on MALME-3M melanoma and in the assay with ACHN renal was above 100 µM in each case.

Regarding `CN(C)c1ccc(/C=C/C(=O)O)cc1`, the TGI in the assay with HOP-62 NSCLC, with SK-OV-3 ovarian, in the assay on HL-60(TB) leukemia, with SW-620 colon, in the assay on UACC-62 melanoma and in the assay with K-562 leukemia was above 100 µM each time. Also, the TGI in the assay on MALME-3M melanoma and with ACHN renal was above 100 µM throughout.

Take `CC(=O)Oc1cc(OC(C)=O)c2c(C)cc(=O)oc2c1`: the TGI with HOP-62 NSCLC, with SK-OV-3 ovarian, in the assay on SW-620 colon, in the assay on MDA-MB-231 breast, in the assay with PC-3 prostate and in the assay with UACC-62 melanoma was above 100 µM in each case. Besides, the TGI with K-562 leukemia, in the assay with MALME-3M melanoma and in the assay with ACHN renal was above 100 µM in each case.

Regarding `CC(=O)N(C(C)=O)n1c(Cc2ccc(C)cc2)nn(C(C)=O)c1=O`, the TGI in the assay on HOP-62 NSCLC, in the assay on SK-OV-3 ovarian, in the assay with HL-60(TB) leukemia, in the assay with SW-620 colon, with MDA-MB-231 breast and in the assay with PC-3 prostate was above 100 µM throughout. Also, the TGI with UACC-62 melanoma, in the assay on K-562 leukemia, with MALME-3M melanoma and in the assay with ACHN renal was above 100 µM in each case.

In the case of `COc1ccc(N=C2C(=Nc3ccc(OC)cc3)N(c3ccc(N(C)C)cc3)C(=S)N2c2ccc(OC)cc2)cc1`, the TGI in the assay on HOP-62 NSCLC, with SK-OV-3 ovarian, in the assay on HL-60(TB) leukemia, with SW-620 colon, in the assay with MDA-MB-231 breast and in the assay with PC-3 prostate was above 100 µM each time. For the same compound, the TGI in the assay with UACC-62 melanoma, in the assay with K-562 leukemia, in the assay on MALME-3M melanoma and with ACHN renal was above 100 µM throughout.

As for `Cc1ccc(S(=O)(=O)N/N=C2/CCC(C(C)(C)C)CC2Br)cc1` (configuration not stated), the TGI in the assay with HOP-62 NSCLC is above 100 µM; in the assay with SK-OV-3 ovarian it was above 100 µM; in the assay with HL-60(TB) leukemia, above 100 µM; with SW-620 colon it was 53.1 µM; in the assay on MDA-MB-231 breast, above 100 µM; in the assay on PC-3 prostate, 86.5 µM. For the same compound, the TGI was 40.1 µM in the assay with K-562 leukemia, 31.2 µM with MALME-3M melanoma and above 100 µM with ACHN renal.

In the case of `C[n+]1c2ccccc2c(/C=N\NS(=O)(=O)c2ccc(Cl)cc2)c2ccccc21`, the TGI was above 100 µM with HOP-62 NSCLC; above 100 µM in the assay on SK-OV-3 ovarian; above 100 µM in the assay on RXF 393 renal; 88.4 µM with HL-60(TB) leukemia; above 100 µM with SW-620 colon; above 100 µM in the assay on UACC-62 melanoma. Also, the TGI with K-562 leukemia, in the assay on MALME-3M melanoma and in the assay with ACHN renal was above 100 µM in each case.

Consider `O=[N+]([O-])c1ccc([N+]2=NC(c3ccccc3)=NN(c3ccccc3)C2)cc1`, for which the TGI was 47.9 µM with HOP-62 NSCLC; above 100 µM with SK-OV-3 ovarian; above 100 µM with RXF 393 renal; above 100 µM in the assay on HL-60(TB) leukemia; above 100 µM in the assay on SW-620 colon; above 100 µM with UACC-62 melanoma. The TGI with K-562 leukemia, in the assay on MALME-3M melanoma and with ACHN renal was above 100 µM in each case.

Turning to `O=C1/C(=C/c2ccccc2)NC(=S)N1CN1CCCCC1`, the TGI in the assay on HOP-62 NSCLC, in the assay with SK-OV-3 ovarian, in the assay with SW-620 colon, with MDA-MB-231 breast, in the assay on PC-3 prostate and in the assay with UACC-62 melanoma was above 100 µM in each case. The TGI with K-562 leukemia and with ACHN renal was above 100 µM throughout.

Take `CCN(CC)CCOc1ccc(C(O)(Cc2ccc(OC)cc2)c2ccccc2)cc1` (configuration not stated): the TGI with HOP-62 NSCLC stood at 32.5 µM; in the assay with SK-OV-3 ovarian, 57.9 µM; in the assay on RXF 393 renal it was 30.4 µM; in the assay on HL-60(TB) leukemia it was 24.9 µM; in the assay with SW-620 colon it was 34.5 µM; in the assay on UACC-62 melanoma, 31 µM. Also, the TGI in the assay with K-562 leukemia turned out to be 18.6 µM; in the assay on MALME-3M melanoma it was 33 µM; in the assay with ACHN renal it was 65.3 µM.

In the case of `CC(=O)NC1(C(=O)N[C@@H](Cc2ccccc2)C(=O)NC2CCCCC2)Cc2ccc3ccccc3c2-c2c(ccc3ccccc23)C1`, the GI50 was 12.2 µM and 57.3 µM in the assay on HOP-62 NSCLC; 27.6 µM and > 100 µM with SK-OV-3 ovarian; 2.87 µM and 6.4 µM in the assay with PC-3 prostate; 6.22 µM and 12.7 µM in the assay with UACC-62 melanoma; 2.7 µM and 7.67 µM with K-562 leukemia; 5 µM and 19.4 µM in the assay on MALME-3M melanoma. The TGI in the assay on HOP-62 NSCLC was above 100 µM; in the assay on SK-OV-3 ovarian, above 100 µM; with HL-60(TB) leukemia, 26.2 µM and 27.4 µM; with SW-620 colon, above 100 µM; in the assay with PC-3 prostate, above 100 µM; in the assay with UACC-62 melanoma it was above 100 µM. Also, the TGI in the assay on K-562 leukemia, in the assay on MALME-3M melanoma and in the assay on ACHN renal was above 100 µM in each case.

`COC1=C2C=[N+](C)C3C(=C2C=CC1OC)Cc1cc2c(cc13)OCO2` (configuration not stated): the TGI with HOP-62 NSCLC was 26.8 µM; in the assay on SK-OV-3 ovarian, 28.3 µM; in the assay with HL-60(TB) leukemia, 15.7 µM; with SW-620 colon it was above 100 µM; with MDA-MB-231 breast, 27.8 µM; with PC-3 prostate, 39.3 µM. The TGI in the assay on UACC-62 melanoma amounted to 21.6 µM; in the assay with K-562 leukemia, 42.5 µM; with MALME-3M melanoma it was 18.8 µM.

With `O=C1CS[C@@](CC(c2ccc(Cl)cc2)c2ccc(Cl)cc2)(c2ccc(Cl)cc2)N1`, the TGI in the assay on HOP-62 NSCLC is 82 µM; with SK-OV-3 ovarian, above 100 µM; in the assay with RXF 393 renal it was 17.6 µM; with HL-60(TB) leukemia, 28.4 µM; in the assay with SW-620 colon it was above 100 µM; in the assay on PC-3 prostate, 65.5 µM. The TGI was 63.1 µM with UACC-62 melanoma, above 100 µM in the assay on K-562 leukemia, 82.6 µM with MALME-3M melanoma and 89.4 µM in the assay with ACHN renal.

As for `Cc1c2ccccc2c(C)n2c1nc1ccccc12`, the TGI was 36 µM in the assay on HOP-62 NSCLC; 27.1 µM in the assay on SK-OV-3 ovarian; 21.5 µM in the assay on RXF 393 renal; above 100 µM with HL-60(TB) leukemia; above 100 µM in the assay with SW-620 colon; 25.2 µM in the assay with PC-3 prostate. Besides, the TGI is 23.5 µM with UACC-62 melanoma, above 100 µM in the assay with K-562 leukemia, 23.5 µM with MALME-3M melanoma and 45.5 µM with ACHN renal.

Source of the values: PubChem BioAssay (NCI).
